Measurements taken from paper PMC11381475, “Biopharmaceutical profiling of anti-infective sanggenons from Morus alba root bark for inhalation administration” (International Journal of Pharmaceutics: X, 2024).
Entries after “also recorded” stand apart in the source; their conditions may differ.

What was measured:
in vitro = settings: human
Calu-3 cells [1] = settings: cited from earlier work
16HBE14o- cells = settings: cited from earlier work
NHBE cells = settings: cited from earlier work
[2] = UV-metric pKa measurement (SiriusT3); type: physicochemical; settings: experimental, SiriusT3, 25 °C, mean ± S.D.
Protocol: Experimental pKa (−log10 of the acid dissociation equilibrium constant) values of SGC and SGD were evaluated using the UV-metric pKa measurement method of the SiriusT3 automated titrator instrument and the corresponding software SiriusT3Control and SiriusT3Refine (Pion Inc., Billerica, USA). The SiriusT3 apparatus uses a deuterium lamp to determine the UV/Vis absorbance spectrum of the test solutions at each pH point. The standard aqueous UV-metric pKa measurement protocol was conducted according to manufacturer instructions. […] This was mixed with 25 μL phosphate buffer (14.7 mM K2HPO4 and 0.15 M KCl in MilliQ water) and diluted with 1.5 mL ionic strength-adjusted water (ISA water ≡ 0.15 M KCl in MilliQ water). The subsequent acid/base titration and measurement of UV absorbance was automatically performed by the SiriusT3 at 25.0 ± 0.5 °C. […] Turbidity was monitored by a turbidity sensor to ensure the absence of precipitation of the test compounds during the experiment, since accurate pKa measurements are limited to fully dissolved substances. In case turbidity occurred, individual titrations were not used for further analysis, resulting in a total of 11 analysable titrations across the 5 replicate samples for both SGC and SGD.

[3] = potentiometric logP, water-octanol (SiriusT3); type: physicochemical; settings: experimental, mean ± S.D., n = 3
Protocol: LogP (partition coefficient) evaluation was performed via SiriusT3. The potentiometric logP measurement relies on assessing the partition profile of the test substance within a two-phase water-octanol solvent system. Changes in the relative volume ratio of octanol to water lead to shifts in the apparent pKa, resulting from the partitioning between non-ionised and ionised forms. LogP values were then estimated based on these assessments.

Calu-3 cells [4] = experiment: Calu-3 cell uptake, FIA-TOFMS; type: in vitro ADME, human; settings: 50 µg/mL; for Concentration [pg/µL] 1 in cell extract / Normalized concentration [pg/cell] 1: replicate 1; for Concentration [pg/µL] 2 in cell extract / Normalized concentration [pg/cell] 2: replicate 2; for Concentration [pg/µL] 3 in cell extract / Normalized concentration [pg/cell] 3: replicate 3
Protocol: At 4, 12, and 24 h after addition, cell extracts were generated in triplicates. To that end, the medium was aspirated from the respective wells, and cells were washed with pre-warmed ammonium carbonate solution (75 mM, pH 7.4, 37 °C). Immediately after removal of the wash solvent, 300 μL cold extraction solvent (40:40:20 acetonitrile:methanol:water, −20 °C) was added per well to lyse cells in situ and stop the enzymatic activity. The bottom of each well was subsequently scraped and the cell extracts were transferred to 96-well storage plates and stored at −80 °C until analysis. […] Quantification of SGC and SGD was performed using flow-injection time-of-flight mass spectrometry (FIA-TOFMS) in negative ion mode as described previously ([Fuhrer et al., 2011]). SGC and SGD signals were identified by matching accurate masses (for both [M-H]- at 707.2127 m/z). To account for possible influences of the complex matrix in the cell extract samples, a matrix-matched series of calibration samples were prepared, in which increasing concentrations of SGC were spiked into extracts of cells that had not previously been treated with either SGC or SGD. The calibration samples were injected alongside the cell extract samples and used to establish a calibration function using linear regression. The ion intensities measured were converted into SGC and SGD concentrations and normalized by the cell number in each sample, which was determined at each time point in separate cell cultures using trypan blue staining and cell counting in a Thermo Fisher Countess II Automated cell counter after trypsin-mediated cell detachment. This procedure eventually yielded estimates of SGC and SGD contents in pg/cell.

Calu-3 monolayer [5] = experiment: MTT assay on Calu-3 monolayer after permeability study; type: cell-based, human; settings: after B-A permeability study
Protocol: To assess potential cytotoxic effects on the monolayer, cell culture medium (10% FBS, 1% P/S) containing 0.45 mg/mL MTT reagent was added to the inserts (300 µL) and wells (1500 µL). Cells treated with fluorescein (40 µg/mL) served as a control. Samples were then incubated for 3.5 hours at 37°C. Following incubation, the MTT solution was removed, and DMSO was added to dissolve the formazan crystals (300 µL for inserts; 1500 µL for wells). The plates were incubated on a shaking platform at 200 rpm in the absence of light for 30 minutes. Subsequently, 100 µL samples from each well were pipetted into a 96-well plate, and the absorbance was measured at 570 nm using an Epoch 2 spectrophotometer.

SARS-CoV-2 = tested on: SARS-CoV-2; set-up: method as in Wasilewicz et al., 2023; settings: reported to be based on inhibition of the viral main protease, ref Wasilewicz et al., 2023; read-out: anti-SARS-CoV-2 activity IC50; cited from earlier work
[6] = mice, doses up to 100 mg/kg, ref Langeder et al., 2023b; cited from earlier work
Calu-3 cells [7] = experiment: Calu-3 cell viability, MTT assay; settings: MTT
Calu-3 monolayer [8] = experiment: bidirectional permeability across Calu-3 monolayer; settings: for concentration in the acceptor chamber (B-A): n = 3
Calu-3 monolayer [9] = experiment: TEER of Calu-3 monolayer before and after permeability study
[10] = control experiments for serum binding and adsorption to plastic
[11] = pH-dependent thermodynamic solubility, miniaturized shake-flask method, UPLC-PDA

COCCc1ccc(OCC(O)CNC(C)C)cc1 (stereo not drawn) [metoprolol]
Papp A→B at 2 h, 500 μM (in vitro): 25.4 ± 6.9 ×10⁻⁶ cm/s
Papp B→A at 2 h, 500 μM (in vitro): 23.3 ± 4.9 ×10⁻⁶ cm/s
Papp (Calu-3 cells [1]): 10.3 ± 0.0 × 10^−6 cm/s
Papp (16HBE14o- cells): 24.5 ± 2.5 × 10^−6 cm/s
Papp (NHBE cells): 11.3 ± 0.7 × 10^−6 cm/s

sanggenon D [SGD]
pKa 1 [2]: 3.27 ± 0.37
pKa 2 [2]: 6.37 ± 0.13
pKa 3 [2]: 7.25 ± 0.32
pKa 4 [2]: 7.99 ± 0.26
pKa 5 [2]: 8.99 ± 0.08
pKa 6 [2]: 9.94 ± 0.04
pKa 7 [2]: 10.78 ± 0.01
pKa 8 [2]: 12.04 ± 0.07
logP [3]: 2.92 ± 0.07
intracellular content, Mean [pg/cell] (Calu-3 cells [4]; 4 h): 0.3 ± 0.2 pg/cell
Concentration [pg/µL] 1 in cell extract (Calu-3 cells [4]; 4 h): 449 pg/µL
Normalized concentration [pg/cell] 1 (Calu-3 cells [4]; 4 h): 0.23 pg/cell
Concentration [pg/µL] 2 in cell extract (Calu-3 cells [4]; 4 h): 281 pg/µL
Normalized concentration [pg/cell] 2 (Calu-3 cells [4]; 4 h): 0.14 pg/cell
Concentration [pg/µL] 3 in cell extract (Calu-3 cells [4]; 4 h): 1158 pg/µL
Normalized concentration [pg/cell] 3 (Calu-3 cells [4]; 4 h): 0.60 pg/cell
intracellular content, Mean [pg/cell] (Calu-3 cells [4]; 4 h, listed as Sanggenon D): 0.32 pg/cell
intracellular content, Mean [pg/cell] (Calu-3 cells [4]; 12 h): 0.54 pg/cell
Concentration [pg/µL] 1 in cell extract (Calu-3 cells [4]; 12 h): 1137 pg/µL
Normalized concentration [pg/cell] 1 (Calu-3 cells [4]; 12 h): 0.57 pg/cell
Concentration [pg/µL] 2 in cell extract (Calu-3 cells [4]; 12 h): 1116 pg/µL
Normalized concentration [pg/cell] 2 (Calu-3 cells [4]; 12 h): 0.55 pg/cell
Concentration [pg/µL] 3 in cell extract (Calu-3 cells [4]; 12 h): 1014 pg/µL
Normalized concentration [pg/cell] 3 (Calu-3 cells [4]; 12 h): 0.50 pg/cell
intracellular content, Mean [pg/cell] (Calu-3 cells [4]; 24 h): 0.69 pg/cell
Concentration [pg/µL] 1 in cell extract (Calu-3 cells [4]; 24 h): 1552 pg/µL
Normalized concentration [pg/cell] 1 (Calu-3 cells [4]; 24 h): 0.59 pg/cell
Concentration [pg/µL] 2 in cell extract (Calu-3 cells [4]; 24 h): 2206 pg/µL
Normalized concentration [pg/cell] 2 (Calu-3 cells [4]; 24 h): 0.84 pg/cell
Concentration [pg/µL] 3 in cell extract (Calu-3 cells [4]; 24 h): 1671 pg/µL
Normalized concentration [pg/cell] 3 (Calu-3 cells [4]; 24 h): 0.63 pg/cell
cytotoxic effects on Calu-3 monolayer after permeability study (MTT) (Calu-3 monolayer [5]): Neither batch 1 nor batch 2 showed a decrease in cell viability; also recorded: no cytotoxic effects
IC50 (SARS-CoV-2): 13.9 µM
serum and tissue concentrations after oral administration [6]: low serum and tissue concentrations
cytotoxic effects (Calu-3 cells [7]; 50 μg/mL, 4-h and 12-h incubation): no cytotoxic effects were observed
CC50 (Calu-3 cells [7]; Calu-3 cells, 24 h exposure): 120.5 µg/mL
amount detected in the acceptor chamber (B-A) (Calu-3 monolayer [8]; B-A, 2 h, isolated SGD or extracts): < 0.6%
concentration in the acceptor chamber (B-A) (Calu-3 monolayer [8]; SGD after applying MA21 600 μg/mL, B-A, 2 h): 7.9 ± 4.2 ng/mL
concentration in the acceptor chamber (B-A) (Calu-3 monolayer [8]; SGD after applying MA60 100 μg/mL, B-A, 2 h): 10.6 ± 5.7 ng/mL
permeability across intact Calu-3 monolayers (Calu-3 monolayer [8]; abstract statement): no measurable permeability
evidence for permeability of SGC or SGD (Calu-3 monolayer [8]; applied as extracts MA60 (100 μg/mL) and MA21 (600 μg/mL), 2 h): Neither by applying the isolated compounds nor the extracts MA60 and MA21, any evidence for the permeability of SGC or SGD was detectable
concentration in the acceptor chamber (B-A) (Calu-3 monolayer [8]; isolated SGD 20 μg/mL applied, B-A, 2 h): 35.4 ± 15.1 ng/mL
detection in the acceptor chamber after 2 h of incubation (A-B direction) (Calu-3 monolayer [8]; isolated compound 20 μg/mL, A-B): could not be detected
change in TEER during permeability study, B-A direction (Calu-3 monolayer [9]; 20 µg/mL in basolateral chamber, 2 h, Calu-3 batch 1): significant decrease in TEER values; also recorded: loss in TEER
TEER after 24 h of incubating with medium at 37 °C (Calu-3 monolayer [9]; B-A directed test wells after permeability study): showed a recovery in TEER; also recorded: recovery to initial values
binding to serum proteins [10]: no indication that SGC or SGD bind to serum proteins
pH 1.2 solubility ([11]; compound within extract MA21, pH 1.2): < LOQ
pH 4.5 solubility ([11]; compound within extract MA21, pH 4.5): < LOQ
pH 6.8 solubility ([11]; compound within extract MA21, pH 6.8): < LOQ
pH 7.4 solubility ([11]; compound within extract MA21, pH 7.4): < LOQ
pH 1.2 solubility ([11]; compound within extract MA60, pH 1.2): 20.6 µg/mL
pH 4.5 solubility ([11]; compound within extract MA60, pH 4.5): 19.7 µg/mL
pH 6.8 solubility ([11]; compound within extract MA60, pH 6.8): 56.8 µg/mL
pH 7.4 solubility ([11]; compound within extract MA60, pH 7.4): 94.9 µg/mL
pH 1.2 solubility ([11]; isolated compound, HCl buffer pH 1.2, 24 h, 24 °C): 111 µg/mL
pH 4.5 solubility ([11]; isolated compound, acetate buffer pH 4.5, 24 h, 24 °C): 121 µg/mL
pH 6.8 solubility ([11]; isolated compound, phosphate buffer pH 6.8, 24 h, 24 °C): 304 µg/mL
pH 7.4 solubility ([11]; isolated compound, phosphate buffer pH 7.4, 24 h, 24 °C): 493 µg/mL
